According to article PMC12190436, “5-Ene-2-arylaminothiazol-4(5H)-ones Induce Apoptosis in Breast Cancer Cells” (Cells, 2025):
Structures can show the parent of a compound that is named as a salt. Where two headings read alike, the source gives them in different places.

Legend:
caspase 10 = test: FLICA caspase-10 activity, flow cytometry; assay type: cell-based, human; conditions: 5 µM, 24 h, MCF-7
Procedure: (§1) To determine the effects of the novel compounds on the caspases-3/7, caspase-8, caspase-9, and caspase-10 activity, the FLICA Caspase-3/7 Assay Kit, FLICA Caspase-8 Assay Kit, FLICA Caspase-9 Assay Kit, and FLICA Caspase-10 Assay Kit were applied (ImmunoChemistry Technologies, Bloomington, MN, USA). MCF-7 cells were seeded on 6-well plates (1 × 10^5 cells per well) and incubated for 24 h. Afterwards, they were treated for 24 h with tested compounds (Les-6416, Les-6418, Les-6381, Les-6423, and Les-6424) in a concentration of 5 µM and the reference drug doxorubicin hydrochloride in a concentration of 0.5 µM. Next, cells were amassed and washed two times with cold PBS, followed by resuspension in an Apoptosis Wash Buffer to a final concentration of 5 × 10^5 cells/mL. Afterwards, 290 µL of the prepared cell suspensions were transferred into tubes, followed by the addition of 10 µL of FLICA solution, prepared immediately before use, to each sample and incubated for an hour at 37 °C. Next, cells were washed two times with 2 mL of Apoptosis Wash Buffer, provided in the kit, centrifuged, and resuspended in 300 µL of the buffer. Prepared samples were assessed by a BD FACSCanto II flow cytometer (Becton Dickinson Biosciences, San Jose, CA, USA). For each sample, 1 × 10^4 events were analyzed. […]

Bax = test: Bax, anti-Bax FITC antibody flow cytometry; assay type: cell-based, human; conditions: 5 µM, 24 h, MCF-7
Procedure: To evaluate the effects of the tested compounds on the concentration of Bax protein, anti-Bax FITC-conjugated antibody was applied. MCF-7 cells were seeded on 6-well plates at 5 × 10^6 cells per well, followed by incubation for 24 h. Afterwards, the cells were treated for 24 h with new 4-thiazolidinone derivatives (Les-6416, Les-6418, Les-6381, Les-6423, and Les-6424) at a concentration of 5 µM. Then, cells were collected and incubated with 4% formaldehyde for 15 min at RT. Next, cells were washed with an excess amount of PBS, followed by permeabilization by adding ice-cold 90% methanol and incubation for 60 min in an ice bath. Cells were again washed with an excess of PBS and resuspended in 100 µL of diluted primary antibody, prepared in antibody dilution buffer at a 1:100 dilution, and incubated for 60 min at room temperature in the dark. Cells were washed, resuspended in 0.3 mL, and transferred to the tubes for immediate assessment using a BD FACSCanto II flow cytometer (Becton Dickinson Biosciences, San Jose, CA, USA). For each sample, 1 × 10^4 events were analyzed. The results were analyzed using FACSDiva software Version 6.1.3 (BD Biosciences Systems, San Jose, CA, USA).
Another important protein for the intrinsic pathway of apoptosis is a pro-apoptotic member of the Bcl-2 family-Bax. […]

UACC-62 = assay type: cell-based
MCF-7 cells [1] = test: Scratch assay (cell migration); assay type: cell-based, human; conditions: 24 h
Procedure: To assess the effects of the tested compounds on cell migration, the scratch assay method was applied [34]. Cells were seeded in 24-well plates at 2 × 10^5 cells per well in 1 mL medium and incubated overnight. Afterwards, they were left in an incubator at 37 °C for 24 h to attach to the wells. The next day, scratches were made using a 200 µL pipette tip in confluent monolayers. […] Images were obtained by utilizing a Nikon ECLIPSE Ti microscope (Nikon, Tokyo, Japan) after 0, 24, and 48 h. The area of the scratches was measured manually via ImageJ software version 1.54k (Bethesda, MD, USA).
The MCF-7 breast cancer cells were treated for 24 h with the tested compounds in concentrations of 5, 2.5, and 1 µM and doxorubicin hydrochloride in concentrations of 1 and 0.5 µM.

MDA-MB-468 = assay type: cell-based
MCF-7 cells [2] = test: ROS generation, H2DCFDA/DAPI double staining; assay type: cell-based, human
Procedure: MCF-7 cells were seeded in 6-well plates at 1 × 10^5 cells per well in 2 mL medium. Afterwards, cells were treated with the mentioned compounds for 1 and 3 h, respectively. Next, cells were washed, and 20 µM of H2DCFDA was added for 30 min. After that, 10 µg/mL of DAPI was added to observe the nuclear DNA of cells. The results were obtained with the use of a Nikon ECLIPSE Ti fluorescence microscope (Nikon, Tokyo, Japan), followed by further assessment via ImageJ software version 1.54k (Bethesda, MD, USA).
H2DCFDA (green fluorescence) was utilized to mark oxidative stress, and DAPI (blue fluorescence) to stain nuclear genetic material.

caspase 9 = test: FLICA caspase-9 activity, flow cytometry; assay type: cell-based, human; conditions: 5 µM, 24 h, MCF-7
Procedure: as §1

SF-295 = assay type: cell-based; conditions: for Growth %: SF-295, 10 μM, one dose, 48 h
MCF7 = assay type: cell-based
NCI-H522 = assay type: cell-based
[3] = tested on: panel of 60 cancer cell lines; assay type: cell-based; conditions: for Mean Growth, % / Range of Growth, % / Positive Cytostatic Effect / Positive Cytotoxic Effect: 10 μM; for Mean Growth, % / Range of Growth, %: one dose; for Positive Cytostatic Effect: number of cell lines with GP from 0 to 50 / total number of cell lines; for Positive Cytotoxic Effect: number of cell lines with GP of <0 / total number of cell lines; for LC50: read-out: MG_MID_60 LC50
SK-MEL-5 = assay type: cell-based
HL-60(TB) = assay type: cell-based

COc1cc(NC2=NC(=O)C(=Cc3ccc4cc[nH]c4c3)S2)cc(OC)c1OC [Les-6416, 5-((1H-Indol-6-yl)methylene)-2-((3,4,5-trimethoxyphenyl)amino)thiazol-4(5H)-one]
cells with active caspase 10 (caspase 10): 43.23 ± 2.85%
Bax positive cells, cell population (Bax): 12.27 ± 0.45%
Growth % (UACC-62; UACC-62, 10 μM, one dose, 48 h): 18.03%
Closure of the gap area (MCF-7 cells [1]; 1 µM): 21.00 ± 7.07%
Growth % (MDA-MB-468; MDA-MB-468, 10 μM, one dose, 48 h): 1.33%
ROS generation versus control (MCF-7 cells [2]; 2.5 µM, 3 h): approximately two times more than the untreated control
ROS generation versus control (MCF-7 cells [2]; 5 µM, 1 h): two times more than the control
ROS generation versus control (MCF-7 cells [2]; 5 µM, 3 h): approximately a threefold increase
cells with active caspase 9 (caspase 9): 41.90 ± 6.89%
Growth % (SF-295): 5.01%
Growth % (MCF7; MCF-7, 10 μM, one dose, 48 h): 6.76%
Growth % (NCI-H522; NCI-H522, 10 μM, one dose, 48 h): 3.77%
Mean Growth, % ([3]; 48 h): 39.56%
Range of Growth, % ([3]; 48 h): −33.26–97.05%
Positive Cytostatic Effect [3]: 38/58
Positive Cytotoxic Effect [3]: 2/58
Growth % (SK-MEL-5; SK-Mel-5, 10 μM, one dose, 48 h): −4.74%
Growth % (HL-60(TB); HL60(TB), 10 μM, one dose, 48 h): 15.10%

COc1cc(NC2=NC(=O)C(=Cc3c[nH]c4ccccc34)S2)cc(OC)c1OC [Les-6418, 5-((1H-Indol-3-yl)methylene)-2-((3,4,5-trimethoxyphenyl)amino)thiazol-4(5H)-one]
Bax positive cells, cell population (Bax): 8.27 ± 0.58%
GI50 (UACC-62; Homo sapiens, UACC-62, 48 h): 4.75 µM
CC50 (UACC-62; Homo sapiens, UACC-62, 48 h, read-out: LC50 (the source's name)): 48.3 µM
TGI (UACC-62; UACC-62, 48 h): 19.7 µM
SI (TGI) (UACC-62; UACC-62, MG_MID_60/value): 0.94
GI50 (MDA-MB-468; Homo sapiens, MDA-MB-468, 48 h): 657 nM
CC50 (MDA-MB-468; Homo sapiens, MDA-MB-468, 48 h, read-out: LC50 (the source's name)): 34.3 µM
TGI (MDA-MB-468; MDA-MB-468, 48 h): 6.23 µM
SI (TGI) (MDA-MB-468; MDA-MB-468, MG_MID_60/value): 2.99
GI50 (SF-295; Homo sapiens, SF-295, 48 h): 2270 nM
CC50 (SF-295; Homo sapiens, SF-295, 48 h, read-out: LC50 (the source's name)): 40.9 µM
Growth % (SF-295): −73.38%
TGI (SF-295; SF-295, 48 h): 13.4 µM
SI (TGI) (SF-295; SF-295, MG_MID_60/value): 1.39
GI50 (MCF7; Homo sapiens, MCF7, 48 h): 1790 nM
CC50 (MCF7; Homo sapiens, MCF7, 48 h, read-out: LC50 (the source's name)): 44.7 µM
TGI (MCF7; MCF7, 48 h): 11.9 µM
SI (TGI) (MCF7; MCF7, MG_MID_60/value): 1.56
GI50 (NCI-H522; Homo sapiens, NCI-H522, 48 h): 403 nM
CC50 (NCI-H522; Homo sapiens, NCI-H522, 48 h, read-out: LC50 (the source's name)): 46 µM
TGI (NCI-H522; NCI-H522, 48 h): 5.56 µM
SI (TGI) (NCI-H522; NCI-H522, MG_MID_60/value): 3.34
Mean Growth, % ([3]; 48 h): −43.64%
Range of Growth, % ([3]; 48 h): −88.00–14.92%
Positive Cytostatic Effect [3]: 7/59
Positive Cytotoxic Effect [3]: 52/59
LC50 ([3]; Homo sapiens, 48 h, full panel mean, 48 h): 56.6 µM
GI50 ([3]; Homo sapiens, CCRF-CEM, HL-60(TB), SR, NCI-H522, HT29, KM12, MDA-MB-435, OVCAR-3, ACHN, BT-549, MDA-MB-468, read-out: GI50, submicromolar concentration range): 280 to 980 nM
GI50 ([3]; Homo sapiens, full panel mean, 48 h, read-out: MG_MID_60 GI50): 3270 nM
MG_MID_60 TGI ([3]; full panel mean, 48 h): 18.6 µM
LC50 ([3]; full panel mean, 48 h): 56.5 µM
SI against certain types of cancer ([3]; subpanel selectivity indices at studied dose–response parameters): 0.71–1.60
GI50 (SK-MEL-5; Homo sapiens, SK-MEL-5, 48 h): 2460 nM
CC50 (SK-MEL-5; Homo sapiens, SK-MEL-5, 48 h, read-out: LC50 (the source's name)): 39.1 µM
TGI (SK-MEL-5; SK-MEL-5, 48 h): 14.1 µM
SI (TGI) (SK-MEL-5; SK-MEL-5, MG_MID_60/value): 1.32
TGI (HL-60(TB); HL-60(TB), 48 h): 11.1 µM
SI (TGI) (HL-60(TB); HL-60(TB), MG_MID_60/value): 1.68
GI50 (HL-60(TB); Homo sapiens, HL-60(TB), 48 h): 855 nM
CC50 (HL-60(TB); Homo sapiens, HL-60(TB), 48 h, read-out: LC50 (the source's name)): > 100 µM

COc1cc(NC2=NC(=O)C(=Cc3cccs3)S2)cc(OC)c1OC [Les-6423, 5-(Thiophen-2-ylmethylene)-2-((3,4,5-trimethoxyphenyl)amino)thiazol-4(5H)-one]
cells with active caspase 10 (caspase 10): did not show any effect
cells with active caspase 9 (caspase 9): did not show any effect

COc1cccc2c1C(=O)c1c(O)c3c(c(O)c1C2=O)C[C@@](O)(C(=O)CO)C[C@@H]3O[C@H]1C[C@H](N)[C@H](O)[C@H](C)O1 [DOX, Doxorubicin hydrochloride, reference compound]
Closure of the gap area (MCF-7 cells [1]; 0.5 µM): 25.50 ± 20.51%
ROS generation versus control (MCF-7 cells [2]; 0.5 µM, 3 h): approximately two times more than the untreated control
